Data as given in ChEMBL document CHEMBL1201862, “PubChem BioAssay data set” (2004).
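Method: 48-hour compound exposure of cells in 96-well plates, five concentrations, linear interpolation of endpoints. Here, GI50 denotes the concentration required for 50% inhibition of growth.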 Activity calls are given as the source filed them. Rule as the data show it: active = GI50 up to about 1.1 µM and inactive = higher.

Experiments:
Assay in all cases: NCI-60 cell line screen, 48 h
[1] = system: SW-620
[2] = system: MOLT-4
[3] = system: SN12C
[4] = system: CCRF-CEM
[5] = system: EKVX
[6] = system: HT-29
[7] = system: A549
[8] = system: SR
[9] = system: SF-295
[10] = system: SK-MEL-5
[11] = system: SF-539
[12] = system: K562
[13] = system: TK-10
[14] = system: A498
[15] = system: OVCAR-4
[16] = system: NCI-H226

Measured: GI50

Cc1ccc2c(c1)NC(=O)C(N=[N+]=[N-])(c1ccccc1)C2=O (stereo not given)
inactive: [1] 34.8 µM | [2] 24.7 µM | [3] 21.1 µM | [4] 28.4 µM | [5] 30.3 µM | [6] 20 µM | [7] 50.5 µM | [8] 20.7 µM | [9] 25.8 µM | [10] 23.1 µM | [11] 35.5 µM | [12] 21 µM | [13] 34.4 µM | [14] 39.9 µM | [15] 44.2 µM

C[C@]12CCC(=O)C=C1CC[C@@H]1C2CC[C@]2(C)Nc3c(cnn3-c3ccccc3)CC12 (stereo not given in full)
inactive: [1] > 100 µM | [2] > 100 µM | [4] > 100 µM | [5] > 100 µM | [6] > 100 µM | [7] > 100 µM | [9] > 10 µM | [10] > 100 µM | [11] > 100 µM | [12] > 100 µM | [13] > 100 µM | [14] > 100 µM | [15] > 100 µM | [16] > 100 µM

C=C1CC2(CCS(=O)(=O)c3ccccc32)OC1=O (stereo not given)
inactive: [1] 3.01 µM | [2] 3.49 µM | [4] 2.24 µM | [5] 18 µM | [6] 12.2 µM | [7] 17.9 µM | [9] 21.1 µM | [10] 12.4 µM | [11] 5.6 µM | [12] 4.04 µM | [13] 12.9 µM | [14] 17.3 µM | [15] 13.7 µM | [16] 10.9 µM

C/C(=N/NC(=O)C[n+]1ccccc1)C(CN(CC(C)C)CC(C)C)C(=O)Nc1ccc(C)cc1C (stereo not given)
inactive: [1] > 100 µM | [2] > 100 µM | [3] 51.4 µM | [4] > 100 µM | [5] 45.1 µM | [6] > 100 µM | [7] > 100 µM | [8] > 100 µM | [10] > 100 µM | [11] > 100 µM | [12] > 100 µM | [13] 78.2 µM | [14] 25.4 µM | [15] > 100 µM

COc1ccc(N(C)CN(C)c2nc(N(C)C)nc(N(C)C)n2)cc1
inactive: [1] > 100 µM | [2] > 100 µM | [3] > 100 µM | [4] > 100 µM | [5] > 100 µM | [6] > 100 µM | [7] > 100 µM | [8] > 100 µM | [9] > 100 µM | [10] > 100 µM | [11] > 100 µM | [12] > 100 µM | [13] > 100 µM | [14] > 100 µM | [15] > 100 µM

O=C1c2cccc3cccc(c23)C(=O)N1CCCN1CCN(CCCN2C(=O)c3cccc4cccc(c34)C2=O)CC1
inactive: [1] > 100 µM | [2] > 100 µM | [3] > 100 µM | [4] 32.8 µM | [5] > 100 µM | [6] > 100 µM | [7] > 100 µM | [9] > 100 µM | [10] > 100 µM | [11] > 100 µM | [12] > 100 µM | [13] > 100 µM | [14] > 100 µM | [15] > 100 µM | [16] > 100 µM

COc1nc(C(=O)O)c(Cl)c(OC)c1Cl
inactive: [1] > 100 µM | [2] > 100 µM | [3] > 100 µM | [4] > 100 µM | [5] > 100 µM | [6] > 100 µM | [7] > 100 µM | [8] > 100 µM | [9] > 100 µM | [10] > 100 µM | [11] > 100 µM | [12] > 10 µM | [13] > 100 µM | [14] > 100 µM | [15] > 100 µM

COc1ccc(C)cc1-c1ccc(-c2cc(C)ccc2OC)o1
inactive: [1] > 100 µM | [2] > 100 µM | [3] > 100 µM | [4] 68.4 µM | [5] > 100 µM | [6] > 100 µM | [7] > 100 µM | [9] > 100 µM | [11] > 100 µM | [12] > 100 µM | [13] > 100 µM | [14] > 100 µM | [15] > 100 µM | [16] > 100 µM

CCOC(=O)C(=O)Nc1ccccc1OCC
inactive: [1] > 100 µM | [2] > 100 µM | [3] > 100 µM | [4] > 100 µM | [5] > 100 µM | [6] > 100 µM | [7] > 100 µM | [9] > 100 µM | [10] > 100 µM | [11] > 100 µM | [12] > 100 µM | [13] > 100 µM | [15] > 100 µM | [16] > 100 µM

CC(=O)NC1=C(NCCO)C(=O)c2ccccc2C1=O
inactive: [1] > 50 µM | [2] > 50 µM | [3] > 50 µM | [4] 42.6 µM | [5] > 50 µM | [6] > 50 µM | [7] > 50 µM | [8] > 50 µM | [9] > 50 µM | [10] 29.9 µM | [11] > 50 µM | [12] > 50 µM | [13] > 50 µM | [15] > 50 µM | [16] > 50 µM

CN1N=CSC12C(=O)N(c1ccccc1)C(=O)N2c1ccccc1 (stereo not given)
inactive: [1] > 100 µM | [2] > 100 µM | [3] > 100 µM | [4] > 100 µM | [5] > 100 µM | [6] > 100 µM | [7] > 100 µM | [9] > 100 µM | [10] > 100 µM | [11] > 100 µM | [12] > 100 µM | [13] > 100 µM | [14] > 100 µM | [15] 82.2 µM

CC1SC2=NC3=C(c4ccccc4C3=O)C(c3ccc(Cl)cc3)N2C1=O (stereo not given)
inactive: [1] > 100 µM | [2] > 100 µM | [3] 95.5 µM | [4] > 100 µM | [5] > 100 µM | [6] > 100 µM | [7] > 100 µM | [9] > 100 µM | [10] > 100 µM | [12] > 100 µM | [13] > 100 µM | [14] > 100 µM | [15] 61.1 µM | [16] > 100 µM

COc1ccc(/C=C/C(=O)c2sc(NC(=S)NC(=O)c3ccccc3F)nc2C)cc1OC
inactive: [1] > 100 µM | [2] 65.6 µM | [3] > 100 µM | [4] 35.6 µM | [5] > 100 µM | [7] > 100 µM | [9] > 100 µM | [10] 88.3 µM | [11] > 100 µM | [12] > 100 µM | [13] > 100 µM | [14] > 100 µM

COC(=O)[C@@]12C3=NO[C@]1(C(=O)OC)C(O[Si](C)(C)C(C)(C)C)[C@@H](OC(C)=O)[C@@H](OC(C)=O)[C@@H]2[C@@H](OCc1ccccc1)CC3 (stereo not given in full)
inactive: [1] > 100 µM | [2] 5.14 µM | [3] > 100 µM | [4] 5.45 µM | [5] > 27.7 µM | [6] > 72.3 µM | [7] 28.3 µM | [9] 5.68 µM | [10] 4.16 µM | [11] > 100 µM | [12] 5.26 µM | [13] > 100 µM | [14] > 85.3 µM | [15] 4.82 µM | [16] 14.9 µM
